Reference: patent US11584746B2, “Inhibitors of EGFR and methods of use thereof” (DANA-FARBER CANCER INSTITUTE, INC., priority 2018, dated 2023)
Like-named read-outs stand apart in the source and are kept apart here.

Tests used:
[1] = test system: EGFR T790M/L858R Ba/F3 cell line; assay: Ba/F3 cell proliferation (MTS assay), EGFR T790M/L858R; format: cell-based, murine; conditions: for inhibition at 1 µM: compound at 1 μM, EGFR T790M/L858R Ba/F3, read-out: Inhibition of proliferation, Activity (% DMSO control)
Protocol: The selectivity between wild-type EGFR and EGFR containing one or more mutations as described herein can also be measured using cellular proliferation assays where cell proliferation is dependent on kinase activity. […] Proliferation assays are performed at a range of inhibitor concentrations (e.g., 10 μM, 3 μM, 1.1 μM, 330 nM, 110 nM, 33 nM, I1 nM, 3 nM, 1 nM) and an EC50 is calculated.
All cell lines were maintained in RPMI 1640 (Cellgro; Mediatech Inc., Herndon, Calif.) supplemented with 10% FBS 100 units/mL penicillin, 100 units/mL streptomycin, and 2 mM glutamine. […] The EGFR I941R mutation was introduced via site directed mutagenesis using the Quick Change Site-Directed Mutagenesis kit (Stratagene; La Jolla, Calif.) according to the manufacturer's instructions. All constructs were confirmed by DNA sequencing. The constructs were shuttled into the retroviral vector JP1540 using the BD Creator™ System (BD Biosciences). Ba/F3 cells were infected with retrovirus and according to standard protocols, as described previously (Zhou 2009). Stable clones were obtained by selection in puromycin (2 μg/ml).
Growth and inhibition of growth was assessed by MTS assay and was performed according to previously established methods (Zhou 2009). The MTS assay is a colorimetric method for determining the number of viable cells that is based on the bioreduction of MTS by cells to a formazan product that is soluble in cell culture medium and can be detected spectrophotometrically. […] All experimental points were set up in six wells and all experiments were repeated at least three times. […] The curves were fitted using a non-linear regression model with a sigmoidal dose response.

[2] = molecular target: recombinant EGFR T790M/L858R kinase (Homo sapiens (Human), UniProt P00533, L858R/T790M); assay: HTRF-based EGFR biochemical assay
Protocol: EGFR biochemical assays are carried out using a homogeneous time-resolved fluorescence (HTRF) assay. The reaction mixtures contain biotin-Lck-peptide substrate, wild type, or mutant EGFR enzyme in reaction buffer. Enzyme concentrations are adjusted to accommodate varying kinase activity and ATP concentrations. Compounds of the present application are diluted into the assay mixture and IC50 values are determined using 12-point inhibition curves.
EGFR kinase proteins were purified by glutathione-affinity chromatography followed by size-exclusion chromatography after cleavage with TEV or thrombin to remove the GST fusion partner following established procedures. (Yun 2008; Yun 2007).
EGFR biochemical assays were carried out using a homogeneous time-resolved fluorescence (HTRF) assay as described previously. The reaction mixtures contained 1 μM biotin-Lck-peptide substrate, wild type or mutant EGFR enzyme in reaction buffer (50 mM HEPES pH 7.1, 10 mM MgCl2, 0.01% BSA. 1 mM TCEP and 0.1 mM Na3VO4) at a final volume of 10 μL. […] All reactions were carried out at room temperature in white ProxiPlate™ 384-well Plus plates (PerkinElmer) and were quenched with 5 μL of 0.2 M EDTA at 60 min. Five μL per well of the detection reagent containing 2.5 ng PT66K (Cis-bio) and 0.05 μg SAXL (Prozyme) were added, and the plates were then incubated at room temperature for 1 hour and read with an EnVision plate reader.

[3] = test system: EGFR L858R/T790M/C797S Ba/F3 cell line; assay: Ba/F3 cell proliferation (MTS assay), EGFR L858R/T790M/C797S; format: cell-based, murine; conditions: Mus musculus, BaF3, compound at 1 μM, read-out: Inhibition of proliferation, Activity (% DMSO control)
Excerpt: The selectivity between wild-type EGFR and EGFR containing one or more mutations as described herein can also be measured using cellular proliferation assays where cell proliferation is dependent on kinase activity. For example, murine Ba/F3 cells transfected with a suitable version of wild-type EGFR (such as VIII; containing a WT EGFR kinase domain), or Ba/F3 cells transfected with L858R/T790M, Del/T790M/L718Q, L858R/T790M/L718Q, L858R/T790M/C797S, Del/T790M/C797S, L858R/T790M/I941R, or Exon 19 deletion/T790M can be used. Proliferation assays are performed at a range of inhibitor concentrations (e.g., 10 μM, 3 μM, 1.1 μM, 330 nM, 110 nM, 33 nM, I1 nM, 3 nM, 1 nM) and an EC50 is calculated.
The EGFR mutant L858R, Del E746_A750, L858R/T790M, DelE746_A750/T790M, L858R/T790M/C797S and Del/T790M/C797S Ba/F3 cells were previously described (Zhou et al., Nature 462, (2009), 1070-1074). All cell lines were maintained in RPMI 1640 (Cellgro; Mediatech Inc., Herndon, Calif.) supplemented with 10% FBS 100 units/mL penicillin, 100 units/mL streptomycin, and 2 mM glutamine. L858R cells were maintained in ACL-4 media (Invitrogen, Carlsbad, Calif.) supplemented with 5% FBS, 100 units/mL penicillin, 100 units/mL streptomycin, and 2 mM glutamine. The EGFR I941R mutation was introduced via site directed mutagenesis using the Quick Change Site-Directed Mutagenesis kit (Stratagene; La Jolla, Calif.) according to the manufacturer's instructions. All constructs were confirmed by DNA sequencing. The constructs were shuttled into the retroviral vector JP1540 using the BD Creator™ System (BD Biosciences). Ba/F3 cells were infected with retrovirus and according to standard protocols, as described previously (Zhou 2009). Stable clones were obtained by selection in puromycin (2 μg/ml).
Growth and inhibition of growth was assessed by MTS assay and was performed according to previously established methods (Zhou 2009). The MTS assay is a colorimetric method for determining the number of viable cells that is based on the bioreduction of MTS by cells to a formazan product that is soluble in cell culture medium and can be detected spectrophotometrically. Ba/F3 cells of different EGFR genotypes were exposed to treatment and the number of cells used per experiment determined empirically and has been previously established (Zhou 2009). All experimental points were set up in six wells and all experiments were repeated at least three times. […] The curves were fitted using a non-linear regression model with a sigmoidal dose response.

[4] = test system: patients with NSCLC resistant to gefitinib or erlotinib; conditions: cited from earlier work
[5] = Mus musculus, BaF3, read-out: Ba/F3 cellular activity (EC50) T790M/L858R
[6] = read-out: Ba/F3 cellular activity (EC50) T790M/L858R + Cetuximab (1 μg/mL), presence of 1 μg/mL cetuximab

Sequence of recombinant EGFR T790M/L858R kinase (P00533 696-1022 T790M/L858R): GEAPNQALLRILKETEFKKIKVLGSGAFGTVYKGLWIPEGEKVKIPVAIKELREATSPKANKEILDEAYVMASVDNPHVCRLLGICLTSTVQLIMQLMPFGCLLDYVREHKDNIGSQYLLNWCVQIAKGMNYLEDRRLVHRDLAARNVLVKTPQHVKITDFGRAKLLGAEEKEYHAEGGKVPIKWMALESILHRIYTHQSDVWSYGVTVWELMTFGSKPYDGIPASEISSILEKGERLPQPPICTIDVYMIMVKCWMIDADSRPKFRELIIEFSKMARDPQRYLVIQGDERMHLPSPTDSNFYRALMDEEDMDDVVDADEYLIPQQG

Row | SMILES | EC50 [1, 5] [nM] | EC50 [1, 6] [nM] | IC50 [2] [nM] | inhibition at 1 µM ([1]; Mus musculus, BaF3) [%] | inhibition at 1 µM [3] [%] | RR [4] [%]
1 | Nc1ccc2c(c1)N(Cc1ccccc1)C(=O)c1cc(-c3ccc4[nH]ccc4c3)ccc1N2 [Compound I-14] | ≥ 750 | ≥ 750 | – | – | – | –
2 | O=C1c2cc(Br)ccc2Nc2ccc(F)cc2N1Cc1ccccc1 [I-a] | ≥ 750 | 250 to 500 | < 250 | – | – | –
3 | O=C1c2cc(-c3ccc(N4CCNCC4)cc3)ccc2Nc2ccc(F)cc2N1Cc1cccnc1 [Compound I-6] | ≥ 750 | ≥ 750 | – | ≥ 75 | ≥ 75 | –
4 | O=C1c2cc(-c3ccc4[nH]ccc4c3)ccc2Nc2ccc(F)cc2N1Cc1ccccc1 [Compound I-2] | ≥ 750 | < 250 | < 250 | ≥ 75 | ≥ 75 | –
5 | O=C1c2cc(-c3ccc(-c4cn[nH]c4)cc3)ccc2Nc2ccc(F)cc2N1Cc1ccccc1 [Compound I-4] | ≥ 750 | 250 to 500 | < 250 | ≥ 75 | ≥ 75 | –
6 | O=C1c2cc(-c3ccc(N4CCNCC4)cc3)ccc2Nc2ccc(F)cc2N1c1ccccc1 [Compound I-5] | ≥ 750 | ≥ 750 | – | ≥ 75 | ≥ 75 | –
7 | O=C1c2cc(-c3ccc(N4CCNCC4)cc3)ccc2Nc2ccc(F)cc2N1Cc1cccc2cc[nH]c12 [Compound I-18] | ≥ 750 | < 250 | < 250 | – | – | –
8 | CN1CCN(c2ccc(Oc3ccc4c(c3)C(=O)N(Cc3ccccc3)c3cc(F)ccc3N4)cc2)CC1 [Compound I-20, 10-benzyl-8-fluoro-2-(4-(4-methylpiperazin-1-yl)phenoxy)-5,10-dihydro-11H-dibenzo[b,e][1,4]diazepin-11-one] | ≥ 750 | 250 to 500 | < 250 | – | – | –
9 | O=C1c2cc(-c3ccc(N4CCNCC4)cc3)ccc2Nc2ccccc2N1Cc1ccccc1 [Compound I-11] | ≥ 750 | 250 to 500 | < 250 | ≥ 75 | ≥ 75 | –
10 | CN1CCC(n2cc(-c3ccc4c(c3)C(=O)N(Cc3ccccc3)c3cc(F)ccc3N4)cn2)CC1 [Compound I-3] | ≥ 750 | < 250 | < 250 | ≥ 75 | ≥ 75 | –
11 | CN1CCC(n2cc(-c3ccc4c(c3)C(=O)N(Cc3cccc5cc[nH]c35)c3cc(F)ccc3N4)cn2)CC1 [Compound I-25] | ≥ 750 | ≥ 750 | < 250 | – | – | –
12 | O=C1c2cc(-c3ccc(N4CCNCC4)cc3)ccc2Nc2ccncc2N1Cc1ccccc1 [Compound I-13] | ≥ 750 | ≥ 750 | – | – | – | –
13 | O=C1c2cc(-c3ccc(N4CCNCC4)cc3)ccc2Nc2ncc(F)cc2N1Cc1ccccc1 [Compound I-12] | ≥ 750 | ≥ 750 | – | – | – | –
14 | CN1CCC(c2ccc(-c3ccc4c(c3)C(=O)N(Cc3ccccc3)c3cc(F)ccc3N4)cc2)CC1 [Compound I-17] | – | – | < 250 | – | – | –
15 | CN(C)C/C=C/C(=O)Nc1cc2c(Nc3ccc(F)c(Cl)c3)ncnc2cc1O[C@H]1CCOC1 [Afatinib] | – | – | – | – | – | < 10
16 | O=C1c2cc(-c3ccc(N4CCNCC4)cc3)ccc2Nc2ccc(F)cc2N1Cc1ccc2cc[nH]c2c1 [Compound I-19] | ≥ 750 | ≥ 750 | – | – | – | –
17 | CN1CCC(n2cc(-c3ccc4c(c3)C(=O)N(Cc3cccc(F)c3)c3cc(F)ccc3N4)cn2)CC1 [Compound I-22] | ≥ 750 | ≥ 750 | < 250 | – | – | –
18 | CN1CCC(n2cc(-c3ccc4c(c3)C(=O)N(Cc3cc(F)cc(F)c3)c3cc(F)ccc3N4)cn2)CC1 [Compound I-24] | ≥ 750 | ≥ 750 | < 250 | – | – | –

Further lines, with some results ahead:

Row | EC50 [1, 5] [nM] | EC50 [1, 6] [nM] | IC50 [2] [nM] | SMILES | inhibition at 1 µM ([1]; Mus musculus, BaF3) [%] | inhibition at 1 µM [3] [%] | RR [4] [%]
19 | ≥ 750 | ≥ 750 | < 250 | O=C1c2cc(-c3ccc(N4CCNCC4)cc3)ccc2Nc2ccc(F)cc2N1Cc1nccs1 [Compound I-7] | ≥ 75 | ≥ 75 | –
20 | ≥ 750 | ≥ 750 | – | O=C1c2cc(-c3ccc4[nH]ccc4c3)ccc2Nc2ccc(F)cc2N1Cc1cccnc1 [Compound I-9] | ≥ 75 | ≥ 75 | –
21 | ≥ 750 | ≥ 750 | – | CC(=O)Nc1ccc2c(c1)N(Cc1ccccc1)C(=O)c1cc(-c3ccc4[nH]ccc4c3)ccc1N2 [Compound I-15] | – | – | –
22 | ≥ 750 | 500 to 750 | < 250 | O=C1c2cc(-c3ccc(N4CCNCC4)cc3)ccc2Nc2ccc(F)cc2N1Cc1ccccc1 [Compound I-1, 10-Benzyl-8-fluoro-2-(4-(piperazin-1-yl)phenyl)-5,10-dihydro-11H-dibenzo[b,e][1,4]diazepin-11-one] | ≥ 75 | ≥ 75 | –
23 | ≥ 750 | ≥ 750 | – | O=C1c2cc(-c3ccc4[nH]ccc4c3)ccc2Nc2ccc(F)cc2N1c1ccccc1 [Compound I-8] | ≥ 75 | ≥ 75 | –
24 | ≥ 750 | ≥ 750 | – | O=C1c2cc(-c3ccc4[nH]ccc4c3)ccc2Nc2ccc(F)cc2N1Cc1nccs1 [Compound I-10] | ≥ 75 | ≥ 75 | –
25 | ≥ 750 | ≥ 750 | < 250 | CN1CCC(n2cc(-c3ccc4c(c3)C(=O)N(Cc3cccc(Cl)c3)c3cc(F)ccc3N4)cn2)CC1 [Compound I-23] | – | – | –
26 | 250 to 500 | 250 to 500 | – | CCC(=O)Nc1ccc2c(c1)N(Cc1ccccc1)C(=O)c1cc(-c3ccc4[nH]ccc4c3)ccc1N2 [Compound I-16] | – | – | –
